The text below walks through data of US20060020029A1, “Pharmaceutical compositions from ethnobotanicals” (priority 2004, published 2006).

In brackets after ≈: the same amount, converted by molar mass. Several values for one entry are separate records, joined by “and”; a condition that tells them apart may be missing. Equal values may be shown once.

In general, EC50 refers to the concentration needed to bring the measured effect to its halfway point.

The subject of assay [1] is Herpes simplex virus type 2 (MS-strain). Briefly: CPE assay, HSV-2 specificity. The assay is classed as cell-based. As for the experimental part:
To determine whether the fractions are specific RSV inhibitors rather than general antiviral agents, the inventors tested them against influenza type A/Shangdong/09/93 (H3N2), herpes simplex type 1 (MacItyre), and herpes simplex type 2 (MS) using the CPE assay system.
CJ4-16-4 was tested using influenza type A, herpes simplex virus type 1, and herpes simplex virus type 2 using the CPE assay with MDCK or Vero cells.

Assay [2] has as its system RSV-A2. The experiment in a line: CPE assay, RSV-A2 in Hep-2 cells.
Experimental: The cell line was propagated in MEM supplemented with 10% heat-inactivated fetal bovine serum (FBS) containing 100 μg/ml of antibiotics (streptomycin/penicillin). […] The overnight medium (MEM containing 10% FBS) was removed, and wells were rinsed twice with 1× phosphate buffer saline (PBS, 200 μl) before adding 10×TCID50 of RSV suspension in fresh medium (MEM plus 2% FBS) to each well, except for cell only wells. […] CellTiter 96 Aqueous Non-Radioactive Cell Proliferation Assay (Promega) was used to monitor the antiviral activity following the manufacturer's instruction. After incubation, the cells were rinsed twice with 200 μl of 1×PBS prior to the addition of 100 μl of fresh medium (MEM plus 10% FBS). […] The extent of cell viability was measured at 490 nm using an ELISA reader, and the absorbance was used to calculate percent inhibition. Antiviral activity of each EB fraction or ribavirin is expressed as IC50, which represents the concentration of the test substance required to reduce the virus infection (as measured by the destruction of the host cells) by 50%.
Hep-2 cells were used in the CPE assay to determine anti-RSV properties.
The subject of assay [3] is RSV A2. The experiment in a line: Cotton rat RSV infection model, pulmonary titer. The note with it: for RSV Pulmonary Titer Mean ± SD / RSV Pulmonary Titer in individual CR (A-D): harvest day 4.
Experimental: All groups consisted of four randomly selected cotton rats. All test materials were administered intraperitoneally with once daily dosing. The placebo group was administered distilled water at volumes and schedules identical to the other groups receiving investigational test articles. In general, timing of administration of ribavarin to the ribavarin-treated group paralleled that of the other treatment groups except that initiation of dosing was on Day 1 for Experiments 1 and 2 and Day 0 for Experiment 3. The dose of ribavarin was 90 mg/kg/day in Experiments 1 and 3 and 180 mg/kg/day in Experiment 2. All animals were inoculated intranasally with approximately 100 median cotton rat infectious doses (CRID50) of RSV A2 on Day 0. Experiments were terminated on either Day 3 or 4 post-infection. […] On the day that the experiment was terminated, all CRs were sacrificed using CO2 to asphyxiate the animals. The lungs from the animals were subsequently removed. The lungs of sacrificed animals were removed, rinsed in sterile phosphate-buffered saline (PBS; pH 7.2) and weighed. Each set of lungs was then transpleurally lavaged using 3 ml of 2% FCS-MEM media. The resulting lung fractions were kept on ice until they were assayed for RSV. The lung fractions of animals from each group were tested for the levels of RSV present.
[4] abbreviates: 12.5 mg/kg/day B.I.D i.p. D0-D3, 50% DMSO.
Setting [5] is: 25 mg/kg/day B.I.D i.p. D0-D3, 50% DMSO.

Take `O=C(/C=C/c1ccc(O)c(O)c1)OC1CC(O)(C(=O)O)CC(OC(=O)/C=C/c2ccc(O)c(O)c2)C1O` (stereo not drawn) [CJ4-16-4, 3,5-di-O-caffeoylquinic acid]: the “activity against HSV-2 (in words)” value in assay [1] is “inactive”. Also, in assay [1] (CPE assay with MDCK or Vero cells), the “EC50, Herpes simplex virus type 2 (MS-strain)” value was > 50 µg/mL. In addition, the EC50 is > 100 µM in assay [1] (μM using the estimated FW-516) and 0.163 µM in assay [2] (read-out: EC50, RSV-A2, μM using the estimated FW-516). The “EC50, RSV-A2” value in assay [2] (Hep-2 cells, CPE assay) turned out to be 0.084 µg/mL (≈ 0.163 µM). Also, in assay [3] (12.5 mg/kg/day), the “inhibition of RSV infection in cotton rat model” value is listed as “over one log”. For the same compound, the “RSV Pulmonary Titer Mean ± SD” value in assay [3] (setting [4]) came to 3.3 ± 0.0 log10/g lung; in assay [3] (setting [5]), 3.2 ± 0.3 log10/g lung. Moreover, the “RSV Pulmonary Titer in individual CR (A-D)” value in assay [3] (setting [4]) was 3.3 log10/g lung; in assay [3] (setting [5]) it was 2.8 log10/g lung and 3.3 log10/g lung (3×). The Reduction is given as 1.1 Log 10 in assay [3] (12.5 mg/kg/day B.I.D i.p. D0-D3, vs placebo) and 1.2 Log 10 in assay [3] (25 mg/kg/day B.I.D i.p. D0-D3, vs placebo).
